Assay results as given in US5314886A, “N-substituted lactams useful as cholecystokinin antagonists” (priority 1992, dated 1994).
Structures can show the parent of a compound that is named as a salt.

Columns and labels:
[1] = target: T1, CCK-A (Rattus norvegicus, UniProt P30551); test: Displacement of 125I-CCK-OP binding to rat pancreatic membranes (CCK-A binding); conditions: for inhibition at 1 µM: read-out: CCK-A binding rat pancreatic membranes: percent displacement of 125I-CCK-OP; for IC50: 125I-CCK-OP
T1 sequence (P30551 1-444): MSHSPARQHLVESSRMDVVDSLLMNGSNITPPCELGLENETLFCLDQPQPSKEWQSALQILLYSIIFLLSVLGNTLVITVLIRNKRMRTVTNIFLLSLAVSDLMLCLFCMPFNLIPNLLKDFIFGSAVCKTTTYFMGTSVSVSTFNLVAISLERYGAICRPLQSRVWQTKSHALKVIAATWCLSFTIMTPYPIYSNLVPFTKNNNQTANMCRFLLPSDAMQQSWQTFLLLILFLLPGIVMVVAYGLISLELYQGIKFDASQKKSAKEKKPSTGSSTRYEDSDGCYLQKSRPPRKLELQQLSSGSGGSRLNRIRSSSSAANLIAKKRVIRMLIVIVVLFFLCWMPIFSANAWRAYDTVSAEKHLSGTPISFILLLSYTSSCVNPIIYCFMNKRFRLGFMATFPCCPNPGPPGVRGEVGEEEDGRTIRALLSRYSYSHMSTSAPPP

[2] = target: T2, CCK-B (Cavia porcellus, UniProt H0VZC5); test: Displacement of 125I-CCK-OP binding to guinea pig brain homogenates (CCK-B binding); conditions: guinea pig brain membranes; for inhibition at 10 µM: read-out: CCK-B binding GP brain membranes: percent displacement of 125I-CCK-OP; for IC50: 125I-CCK-OP, read-out: CCK-B binding GP brain membranes: IC50
T2 construct: Rat pancreas or guinea pig brain was homogenized; from tissue; host or cells: guinea pig brain homogenate (membrane pellet)
T2 sequence (H0VZC5 1-426): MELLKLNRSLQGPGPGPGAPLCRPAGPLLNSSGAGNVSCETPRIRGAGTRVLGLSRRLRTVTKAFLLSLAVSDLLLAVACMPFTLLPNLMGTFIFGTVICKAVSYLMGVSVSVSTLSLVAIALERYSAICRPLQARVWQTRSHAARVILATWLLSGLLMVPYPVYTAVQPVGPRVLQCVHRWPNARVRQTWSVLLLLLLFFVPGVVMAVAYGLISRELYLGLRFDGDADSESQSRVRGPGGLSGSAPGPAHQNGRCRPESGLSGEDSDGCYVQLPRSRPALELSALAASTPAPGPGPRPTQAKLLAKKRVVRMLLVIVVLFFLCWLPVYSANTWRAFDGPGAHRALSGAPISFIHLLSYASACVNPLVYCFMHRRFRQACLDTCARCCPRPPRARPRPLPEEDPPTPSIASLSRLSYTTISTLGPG
Description: Percent displacement of ^125 I-CCK-OP binding to rat pancreatic membrane and guinea pig brain homogenates by compounds of the instant invention at different concentrations was used to quantify CCK-A and CCK-B receptor binding, respectively.
Binding of 125-CCK-OP to rat pancreas (CCK-A) and guinea pig brain (CCK-B) homogenates.
Rat pancreas or guinea pig brain was homogenized in 50 and 20 volumes, respectively, of 50 mM Tris-HCl buffer (pH 7.8 at 25° C.) with a Brinkmann polytron homogenizer. The homogenates were centrifuged twice at 50,000 x g for 20 min with an intermediate rehomogenization in fresh buffer. The final pellets were resuspended in 20 volumes (brain) or 40 volumes (pancreas) of incubation buffer [50 mM Tris-HCl, 5 mM MgCl2, 0.2% BSA, 5 mM dithiothreitol, 0.14 mg/ml bacitracin, pH 7.9 at 25° C.]. One milliliter of the final homogenate from brain or pancreas was diluted to 50 mL with incubation buffer to use in the binding assay.
Binding experiments were performed in a final volume of 1 mL in 13×100 mm borosilicate disposable culture tubes. To duplicate tubes were added 890 μL of freshly resuspended pancreas or brain homogenate; 73,000 dpm of […] (final concentration, 12 pM) and 10 μL of DMSO containing displacing agents (compounds or reference compounds, at the desired final concentrations). Nonspecific (nonsaturable) binding was determined in the presence of 1 μM unlabeled CCK-OP. After incubation for 30 min at 37° C. the binding was stopped by rapid filtration under a reduced pressure through glass fiber FPD-105 Whatman GF/B filters on Harvester and washed twice with 5 mL of ice-cold Tris buffer (50 mM Tris-HCl, pH 7.8). The radioactivity on the filters was counted in a gama counter. […] Specific binding was defined as the excess binding over that in blanks containing 1 μM unlabeled CCK-OP.
Determination of IC50 for displacing agents

[3] = tested on: CCK receptors; test: Rat gastric emptying: reversal of CCK-delayed gastric emptying; format: in vivo; conditions: IP, CCK 100 μg/Kg i.p.
Description: Rat Gastric Emptying Protocol
A test meal for measuring gastric emptying in rats was prepared. Ten grams of methylcellulose (2% solution=15 centipoises; Aldrich Chemical Company, Milwaukee, Wisc. was added to 200ml of cold water and mixed at 20,000 rpm in a Waring blender to insure dispersion and hydration of the methylcellulose. In addition, two beef bouillon cubes (Wyler's, Columbus, Ohio) dissolved in 100 ml of warm water was added to the mixture, followed by 16 g of casein (Hammersten, Schwartz/Mann, Orangeburg, N.Y.), 8 g of powdered confectioners sugar and 8 g of cornstarch. The ingredients were mixed for two minutes at 20,000 rpm and the resultant test meal was refrigerated for 48 hours to allow trapped air to escape. Male Charles River Rats, Crl: COBS, CD (SD) BR Strain, 180-200 g body weight, were used in groups of six animals. The animals were food deprived for 24 hours prior to the experiment with access to water ad libitum. The compounds to be evaluated were prepared in a 0.5% aqueous methylcellulose solution. If insoluble, the mixture was homogenized for two minutes at 5500 rpm using a Try-R-Stir-R. The compounds were given intraperitoneally or intragastrically at a volume of 5 ml/kg, 60 minutes or 90 min, respectively, before the test meal. Control animals received only the vehicle. Cholecystokinin (100 μg/Kg, i.p.) was given 30 minutes before the test meal to delay gastric emptying by an effect elicited through CCK receptors. Sixty minutes after the test meal (2.0 ml/rat, i.g.), the rats were sacrificed by CO2 asphyxiation. The stomachs were removed intact and weighed. The stomachs were kept opened, gently rinsed with tap water, blotted dry with paper toweling, and the empty stomach weighed. The difference between the weight of the full and empty stomach is indicative of the amount of meal remaining in the stomach. The amount of meal remaining in the stomach was subtracted from the weight of 3 ml of the test meal to determine the amount of food emptied from the stomach during the test. Weight of the test meal was determined by weighing three samples (3 ml) at the beginning and three samples at the end of each experiment and calculating the mean. The mean and standard error of the amount of meal emptied were calculated for at least 5 doses of compound, and expressed as percent change from control.

Compound | inhibition at 1 µM [1] [%] | inhibition at 10 µM [2] [%] | CCK-delayed gastric emptying: ED50 [3] [mpk] | IC50 [1] [µM] | IC50 [2] [µM]
CC(C)(C)OC(=O)[C@@H]1CN(c2ccccc2)C(=O)[C@@H]1NC(=O)c1ccc2ccccc2c1 (relative stereo) [1,1-Dimethylethyl cis-4-[(2-naphthalenylcarbonyl)amino]-5-oxo-1-phenyl-3-pyrrolidinecarboxylate] | 32 | 35 | – | – | –
O=C(N[C@@H]1C(=O)N(c2ccccc2)C[C@H]1C(=O)O)c1ccc2ccccc2c1 (relative stereo) [41 trans] | – | 22 | 3.2 | – | –
CCCCCN1C[C@H](C(=O)O)[C@H](NC(=O)Nc2ccc(Cl)cc2)C1=O (relative stereo) [47 cis] | – | – | – | > 1 | –
CCCCCN1C[C@@H](C(=O)O)[C@H](NC(=O)Nc2ccc(Cl)cc2)C1=O (relative stereo) [47 trans] | – | – | – | > 1 | –
CCCCCN1C[C@@H](C(=O)O)[C@@H](NC(=O)c2cnc3ccccc3c2)C1=O (relative stereo) [Example 27, cis-5-oxo-1-pentyl-4-[(3-quinolinylcarbonyl)amino]-3-pyrrolidinecarboxylic acid, monohydrochloride] | – | – | – | 0.25 | > 10
O=C(N[C@@H]1C(=O)N(c2ccccc2F)C[C@@H]1C(=O)O)c1cnc2ccccc2c1 (relative stereo) [Example 28, cis-1-(2-fluorophenyl)-5-oxo-4-[(3-quinolinylcarbonyl)amino]5-oxo-3-pyrrolidinecarboxylic acid] | – | – | – | – | > 10
O=C(N[C@@H]1C(=O)N(c2ccccc2)C[C@H]1C(=O)O)c1cc2ccccc2[nH]1 (relative stereo) [Example 30, trans-4-[(1H-Indol-2-ylcarbonyl)amino]-5-oxo-1-phenyl-3-pyrrolidinecarboxylic acid] | – | – | – | 0.32 | –
CCCCCN1C[C@@H](C(=O)O)[C@@H](NC(=O)c2ccc(Cl)c(Cl)c2)C1=O (relative stereo) [Example 32, cis-4-[[(3,4-Dichlorophenyl)carbonyl]amino]-5-oxo-1-pentyl-3-pyrrolidinecarboxylic acid] | – | 49 | – | 0.3 | –
CCCCCN1C[C@@H](C(=O)O)[C@@H](NC(=O)Nc2ccc(Cl)c(Cl)c2)C1=O (relative stereo) [Example 34, cis-4-[[[(3,4-dichlorophenyl)amino]carbonyl]amino]-5-oxo-1-pentyl-3-pyrrolidinecarboxylic acid] | – | – | – | 0.35 | 6
O=C(N[C@@H]1C(=O)N(c2ccccc2)C[C@H]1C(=O)O)c1ccc(Cl)c(Cl)c1 (relative stereo) [Example 35 (trans), trans-4-[[(3,4-dichlorophenyl)carbonyl]amino]-5-oxo-1-phenyl-3-pyrrolidinecarboxylic acid] | – | – | – | > 1 | > 10
O=C(Nc1ccc(Cl)c(Cl)c1)N[C@H]1C(=O)N(c2ccccc2)C[C@H]1C(=O)O (relative stereo) [Example 36 (cis), cis-4-[[[(3,4-dichlorophenyl)amino]carbonyl]amino]-5-oxo-1-phenyl-3-pyrrolidinecarboxylic acid] | – | – | – | 0.1 | 10
O=C(Nc1ccc(Cl)c(Cl)c1)N[C@@H]1C(=O)N(c2ccccc2)C[C@H]1C(=O)O (relative stereo) [Example 36 (trans)] | – | 45 | – | > 1 | –
CCCCCN1C[C@@H](C(=O)O)[C@H](NC(=O)c2ccc3ccccc3c2)C1=O (relative stereo) [Example 39, trans-4-[(2-Naphthalenylcarbonyl)amino]-5-oxo-1-pentyl-3-pyrrolidinecarboxylic acid] | – | – | – | > 10 | –
CCCCCN1C[C@@H](C(=O)O)[C@@H](NC(=O)Nc2ccc3ccccc3c2)C1=O (relative stereo) [Example 40, cis-4-[[(2-Naphthalenylamino)carbonyl]amino]-5-oxo-1-pentyl-3-pyrrolidinecarboxylic acid] | – | – | – | 2.8 | 10
CCCCCN1C[C@@H](C(=O)O)[C@@H](NC(=O)c2ccc(Cl)cc2)C1=O (relative stereo) [Example 45] | – | – | – | > 1 | > 10
O=C(N[C@H]1C(=O)N(c2ccccc2)C[C@H]1C(=O)O)c1ccc(Cl)cc1 (relative stereo) [Example 46 (cis), cis-4-[[(4-Chlorophenyl)carbonyl]amino]-5-oxo-1-phenyl-3-pyrrolidinecarboxylic acid] | – | – | – | 1.6 | > 10
O=C(N[C@@H]1C(=O)N(c2ccccc2)C[C@H]1C(=O)O)c1ccc(Cl)cc1 (relative stereo) [Example 46 (trans), trans-4-[[(4-Chlorophenyl)carbonyl]amino]-5-oxo-1-phenyl-3-pyrrolidinecarboxylic acid] | – | – | – | 41 | > 10
O=C(Cc1c[nH]c2ccccc12)N[C@@H]1C(=O)N(c2ccccc2)C[C@H]1C(=O)O (relative stereo) [Example 51, trans-4-[(3-indolylacetyl)amino]-5-oxo-1-phenyl-3-pyrrolidinecarboxylic acid] | – | – | – | > 1 | > 10
O=C(N[C@@H]1C(=O)N(c2ccccc2)C[C@@H]1C(=O)N1CCCC1)c1ccc2ccccc2c1 (relative stereo) [Example 53, cis-1-[[3-[(2-Naphthalenylcarbonyl)amino]-2-oxo-1-phenyl-4-pyrrolidinyl]carbonyl]pyrrolidine] | – | 45 | – | 0.75 | –
O=C(N[C@@H]1C(=O)N(c2ccccc2)C[C@H]1C(=O)N1CCCC1)c1ccc2ccccc2c1 (relative stereo) [Example 55, trans-1-[[3-[(2-Naphthalenylcarbonyl)amino]-2-oxo-1-phenyl-4-pyrrolidinyl]carbonyl]pyrrolidine] | 27 | – | – | – | 10
